Assay results: patent US12617757B2, “Compounds and modules for inhibition of pre-miR-21 and their use in treatment of certain cancers” (University of Florida Research Foundation, Incorporated, priority 2019, dated 2026)

Assays:
pre-miR-21 = assay: Cellular Chem-CLIP / C-Chem-CLIP in MDA-MB-231 cells; assay type: cell-based, human
Protocol: Cellular Chem-CLIP/C-Chem-CLIP. The MDA-MB-231 cells were grown to ˜70% confluency as monolayers in 60 mm dishes. The cells were treated with Chem-CLIP compounds (8 or 9) and/or non-cross-linking competitors (1 or 2) for 48 h. Total RNA was extracted using a Quick-RNA MiniPrep Kit (Zymo Research) per the manufacturer's protocol. Approximately 20-30 μg of total RNA was then incubated with 100 μL of streptavidin-agarose beads (Sigma-Aldrich) and shaken for 1 h at room temperature. The solution was removed beads washed six times with 1×PBS. The RNA bound to beads was released, purified, and used for RT-qPCR as previously described^23. Relative fold enrichment of the measured RNA before and after pulldown was measured using equation 3 (Eq. 3): Relative Fold Enrichment=2^−(ΔC^t^before pulldown−ΔC^t^after pulldown) (Eq. 3)
where “ΔCt before pulldown” is the difference between the Ct values for the RNA of interest and a housekeeping gene in total RNA from cells and “ΔCt after pulldown” is the difference between the Ct values for the RNA of interest and the same housekeeping gene in RNA after pulldown.

pre-miR-21 BP RNA = assay: In vitro Dicer processing of pre-miR-21 BP; assay type: biochemical
Source text: (§1) In vitro Dicer processing. […] Cleavage products were resolved on a denaturing 15% polyacrylamide gel, which was imaged using a Molecular Dynamics Typhoon phosphorimager and quantified with Bio-Rad's QuantityOne software, normalizing to full length RNA.

[1] = tested on: miR-21-5p in HEK293T cells; assay: RT-qPCR of mature miR-21-5p in HEK293T cells (dimer linker screening); assay type: cell-based; conditions: n=3, n=4 and 1
pre-miR-21 WT RNA = assay: In vitro Dicer processing of pre-miR-21 WT; assay type: biochemical
Source text: as §1

PTEN = PTEN 3′ UTR luciferase reporter assay in MDA-MB-231 cells; assay type: cell-based, human
Protocol: PTEN Luciferase Assay. The MDA-MB-231 cells were grown in 48-well plates to ˜60% confluency and then transiently co-transfected with a Firefly luciferase plasmid encoding the 3′ untranslated region (UTR) of PTEN^25 and a control Renilla luciferase plasmid using Lipofectamine 2000 per the manufacturer's protocol. At 5 h post-transfection, compounds diluted in growth medium were added to cells and then incubated for 48 h. Luciferase assays were completed using a previously described protocol^23,26. Luminescence signal was measured on a Biotek Flx800 plate reader.

RNase L = molecular target: T1, RNase L (Homo sapiens, UniProt Q05823); assay: In vitro RNase L oligomerization; assay type: biochemical; set-up: GST; made in house
T1 sequence (Q05823 1-741): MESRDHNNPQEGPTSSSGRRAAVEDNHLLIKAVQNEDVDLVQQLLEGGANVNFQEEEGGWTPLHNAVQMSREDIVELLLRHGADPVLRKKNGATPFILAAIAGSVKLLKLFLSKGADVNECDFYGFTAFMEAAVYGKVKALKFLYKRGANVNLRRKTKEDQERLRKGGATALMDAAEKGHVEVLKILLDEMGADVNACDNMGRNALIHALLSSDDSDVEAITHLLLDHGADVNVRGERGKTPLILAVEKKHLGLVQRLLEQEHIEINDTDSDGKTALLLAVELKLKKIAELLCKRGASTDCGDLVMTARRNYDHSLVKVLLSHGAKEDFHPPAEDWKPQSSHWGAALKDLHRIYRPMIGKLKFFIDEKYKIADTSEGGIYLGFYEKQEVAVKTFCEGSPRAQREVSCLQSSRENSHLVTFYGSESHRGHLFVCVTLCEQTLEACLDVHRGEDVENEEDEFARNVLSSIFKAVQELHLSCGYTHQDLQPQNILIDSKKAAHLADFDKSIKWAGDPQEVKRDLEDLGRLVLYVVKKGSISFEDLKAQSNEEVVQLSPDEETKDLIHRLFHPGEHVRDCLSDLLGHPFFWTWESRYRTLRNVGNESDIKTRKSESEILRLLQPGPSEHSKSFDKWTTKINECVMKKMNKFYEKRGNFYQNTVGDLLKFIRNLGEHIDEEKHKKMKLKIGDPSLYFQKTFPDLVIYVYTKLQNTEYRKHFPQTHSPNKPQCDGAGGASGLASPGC
Protocol: In Vitro RNase L Oligomerization. An aliquot of RNase L (3 μM) in 1×RNase L Buffer was supplemented with 10 mM MgCl2, fresh 7 mM β-mercaptoethanol, and 50 μM of ATP. RNase L oligomerization was performed as previously described^13 using dilutions of 2′-5′ A4 or compounds (2 or 5) prepared in 1×RNase L Buffer. A Western blot (described below) was run to resolve monomeric and oligomeric RNase L populations using RNase L primary antibody (1:5000 dilution; Cell Signaling Technology: D4B4J) overnight at 4° C. in 1×TBST containing 5% nonfat dry milk and 1:10000 anti-rabbit IgG horseradish peroxidase secondary antibody conjugate (Cell Signaling Technology: 7074S) in 1×TBST containing 5% nonfat dry milk for 2 h at room temperature.

[2] = DMPK: plasma levels in C57BL/6 mice; assay type: in vivo, mouse; conditions: i.p., 10 mg/kg
Protocol: DMPK Measurements: Male C57BL/6 mice (n=3, 5-7 weeks) were used for pharmacokinetics (PK) assessment. Mice were dosed i.p. (10 mg/kg) with 5 in a formulation of DMSO/Tween-80/H2O (10/10/80) and blood (25 μL) was drawn at 0.25, 0.5, 1, 2, 4, 6, 8, and 24 h time points. Detection of compound levels in blood plasma was determined using LC/MS-MS on a QTRAP 5500 LC-MS/MS System (AB Sciex).

| SMILES | potency in occupying pre-miR-21 in cells versus Formula 1 (C-Chem-CLIP) (pre-miR-21; MDA-MB-231) [fold] | competition of Chem-CLIP enrichment (C-Chem-CLIP) (pre-miR-21; MDA-MB-231, versus probe 8) | protection from Dicer processing (pre-miR-21 BP RNA) | inhibition of miR-21 levels, dose response of linker lengths [1] | inhibition of / protection from Dicer processing (pre-miR-21 WT RNA) | increase of PTEN luciferase signal relative to mock or scramble controls (PTEN) [fold] | increase of PTEN levels (PTEN; 10 μM) [%] | oligomerization of RNase L (RNase L) | concentrations maintained in mice (plasma) [2] |
| --- | --- | --- | --- | --- | --- | --- | --- | --- | --- |
| CCCN(CC(=O)N(CCC)CC(=O)N(CCC)CC(=O)N(CC(N)=O)Cc1cn(CCCNC(=O)CCCOc2ccc(-c3nc4cc(-c5ccc(N6CCN(C)CC6)cc5)ccc4[nH]3)cc2)nn1)C(=O)CNCc1cn(CCCNC(=O)CCCOc2ccc(-c3nc4cc(-c5ccc(N6CCN(C)CC6)cc5)ccc4[nH]3)cc2)nn1 [Compound 2] | 20 | enrichment is depleted | Protection with compound is observed at U26 and U27 | most significantly inhibited miR-21 levels | Protection with compound is observed at U23 (boxes marked with arrows) and U26 and U27 | ~1.5 | ~50 |  |  |
| CCCN(CC(=O)N(CCC)CC(=O)N(CCC)CC(=O)N(CC(=O)NCCOCCOCCOCCOc1ccc(C=C2SC(Nc3ccccc3)=C(C(=O)OCC)C2=O)cc1O)Cc1cn(CCCNC(=O)CCCOc2ccc(-c3nc4cc(-c5ccc(N6CCN(C)CC6)cc5)ccc4[nH]3)cc2)nn1)C(=O)CN(Cc1cn(CCCNC(=O)CCCOc2ccc(-c3nc4cc(-c5ccc(N6CCN(C)CC6)cc5)ccc4[nH]3)cc2)nn1)C(C)=O [Compound 5] |  |  |  |  |  |  |  | oligomerization of RNase L | low nanomolar concentrations |
